Measured values as given in patent US9750805B2, “Calcium flux agonists and methods therefor” (Nant Holdings IP, LLC, priority 2012, dated 2017).

How the values were obtained:
[1] = target: sarco/endoplasmic reticulum Ca2+ ATPases (SERCA); conditions: cited from earlier work
S. aureus = assay: Killing of intracellular S. aureus by thapsigargin-treated differentiated THP-1 cells (FIG. 11); type: cell-based, human; conditions: 1 day with 20 nM thapsigargin vs vehicle, MOI of 10
Description: Briefly, a logarithmically dividing S. aureus was pelleted (2000×g for 10 min) and washed three times with Hank's Buffered Salt Solution (Cellgro). Concurrently, 2 day differentiated THP-1 cells (using 1 uM retinoic acid and 1 uM cholecalciferaol, Sigma-Aldrich) followed by 1 day with 20 nM thapsigargin or vehicle were collected and washed in Hank's Buffered Salt Solution. Differentiated cells were supplemented with 10% human serum (Innovative Research) and chilled on ice for 30 minutes. After the 30 minutes, S. aureus (MOI of 10) was added on ice for an additional 20 minutes to synchronize binding. Tubes were then incubated for 20 minutes at 37° C. After 20 minutes, 10 U/mL of lysostaphin (Sigma-Aldrich) was added to eliminate non-internalized bacteria. At the desired time points (20, 30, 60 minutes) 20 uL aliquots were removed and diluted into 10 mL of water. The dilution tubes were vortex and allowed to sit at room temp for 10 minutes to ensure proper lysis of the primary cells. After 10 minutes, the dilution tubes were centrifuged for 10 minutes at 2000×g and the remaining S. aureus was concentrated 20 fold and plated in triplicate on tryptic soy agar (Cellgro) and incubated overnight at 37° C. prior to colony enumeration.

In the case of `C/C=C(/C)C(=O)O[C@H]1C(C)=C2[C@H]([C@@H]1OC(=O)CCCCCCC)[C@@](C)(OC(C)=O)C[C@H](OC(=O)CCC)[C@@]1(O)[C@H]2OC(=O)[C@@]1(C)O` [thapsigargin], the “affinity constant of Thapsigargin:SERCA binding” value [1] is given as “low picomolar range” and the “antimicrobial activity of treated cells against internalized S. aureus” value (S. aureus) is given as “greater antimicrobial activity”.
